Experimental data from ChEMBL document CHEMBL3991601, “The target landscape of clinical kinase drugs” (Science, 2017).
Calls of active or inactive are those of the source.

Key:
[1] = target: T1, Serine/threonine-protein kinase STK11 (Homo sapiens, UniProt Q15831)
T1 sequence (Q15831 whole entry): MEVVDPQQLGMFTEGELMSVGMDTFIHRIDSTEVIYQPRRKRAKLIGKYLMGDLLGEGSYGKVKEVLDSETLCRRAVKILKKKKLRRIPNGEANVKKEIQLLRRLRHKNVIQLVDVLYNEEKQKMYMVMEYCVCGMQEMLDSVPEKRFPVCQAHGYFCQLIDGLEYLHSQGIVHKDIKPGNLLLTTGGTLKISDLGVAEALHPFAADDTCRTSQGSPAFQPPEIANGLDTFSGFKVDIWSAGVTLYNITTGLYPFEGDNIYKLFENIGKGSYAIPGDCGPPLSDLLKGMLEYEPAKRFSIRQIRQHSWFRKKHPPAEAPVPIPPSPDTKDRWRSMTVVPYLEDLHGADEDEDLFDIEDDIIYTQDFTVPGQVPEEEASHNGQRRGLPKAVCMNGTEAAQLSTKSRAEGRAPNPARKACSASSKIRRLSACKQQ

[2] = target: T2, Phenylalanine--tRNA ligase beta subunit (Homo sapiens, UniProt Q9NSD9)
T2 sequence (Q9NSD9 whole entry): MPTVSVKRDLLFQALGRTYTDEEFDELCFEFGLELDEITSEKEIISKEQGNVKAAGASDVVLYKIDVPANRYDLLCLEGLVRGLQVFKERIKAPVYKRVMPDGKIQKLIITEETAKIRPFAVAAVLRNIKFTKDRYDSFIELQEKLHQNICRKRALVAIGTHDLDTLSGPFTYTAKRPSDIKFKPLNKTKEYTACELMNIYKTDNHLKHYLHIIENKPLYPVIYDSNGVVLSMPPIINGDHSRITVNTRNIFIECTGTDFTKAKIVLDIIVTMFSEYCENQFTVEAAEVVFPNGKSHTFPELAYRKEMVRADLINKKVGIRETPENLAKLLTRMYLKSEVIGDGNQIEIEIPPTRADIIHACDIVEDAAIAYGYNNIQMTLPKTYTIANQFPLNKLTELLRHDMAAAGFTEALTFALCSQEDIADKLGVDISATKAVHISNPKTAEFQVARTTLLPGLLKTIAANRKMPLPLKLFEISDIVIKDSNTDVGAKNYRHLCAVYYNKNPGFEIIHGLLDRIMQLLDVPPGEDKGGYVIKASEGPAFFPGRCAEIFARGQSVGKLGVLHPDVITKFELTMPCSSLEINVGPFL

Ephrin type-B receptor 2 = target: T3, Ephrin type-B receptor 2 (Homo sapiens, UniProt P29323)
T3 sequence (P29323 whole entry): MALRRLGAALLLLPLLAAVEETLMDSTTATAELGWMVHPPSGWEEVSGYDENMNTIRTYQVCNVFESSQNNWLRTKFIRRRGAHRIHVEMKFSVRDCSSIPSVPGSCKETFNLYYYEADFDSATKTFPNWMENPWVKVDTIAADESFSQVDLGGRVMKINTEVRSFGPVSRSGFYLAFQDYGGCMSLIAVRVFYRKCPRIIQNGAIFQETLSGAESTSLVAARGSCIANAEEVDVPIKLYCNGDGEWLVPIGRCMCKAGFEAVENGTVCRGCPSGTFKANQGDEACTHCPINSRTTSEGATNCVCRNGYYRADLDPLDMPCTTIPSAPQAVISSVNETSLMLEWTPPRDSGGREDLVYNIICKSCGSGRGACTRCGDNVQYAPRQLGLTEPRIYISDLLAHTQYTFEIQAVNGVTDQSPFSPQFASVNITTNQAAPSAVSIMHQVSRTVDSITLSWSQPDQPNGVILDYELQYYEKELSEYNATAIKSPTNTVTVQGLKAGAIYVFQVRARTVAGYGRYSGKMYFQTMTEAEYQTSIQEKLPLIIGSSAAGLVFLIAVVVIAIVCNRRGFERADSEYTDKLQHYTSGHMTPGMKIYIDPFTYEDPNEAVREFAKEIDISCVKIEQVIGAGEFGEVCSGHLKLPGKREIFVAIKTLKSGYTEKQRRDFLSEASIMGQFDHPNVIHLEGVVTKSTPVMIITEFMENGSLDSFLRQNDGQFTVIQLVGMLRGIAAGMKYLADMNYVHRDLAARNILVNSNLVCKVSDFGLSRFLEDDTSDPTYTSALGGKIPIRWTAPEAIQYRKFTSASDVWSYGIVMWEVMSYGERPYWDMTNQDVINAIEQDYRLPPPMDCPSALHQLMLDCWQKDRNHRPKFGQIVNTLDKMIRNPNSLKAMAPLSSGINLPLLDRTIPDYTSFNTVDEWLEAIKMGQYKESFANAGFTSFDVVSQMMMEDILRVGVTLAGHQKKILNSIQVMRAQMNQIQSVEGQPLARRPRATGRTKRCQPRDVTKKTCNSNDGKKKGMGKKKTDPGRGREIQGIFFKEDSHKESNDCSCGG

Aurora kinase B = Aurora kinase B (Homo sapiens, UniProt Q96GD4)
Aurora kinase B, sequence (Q96GD4 whole entry): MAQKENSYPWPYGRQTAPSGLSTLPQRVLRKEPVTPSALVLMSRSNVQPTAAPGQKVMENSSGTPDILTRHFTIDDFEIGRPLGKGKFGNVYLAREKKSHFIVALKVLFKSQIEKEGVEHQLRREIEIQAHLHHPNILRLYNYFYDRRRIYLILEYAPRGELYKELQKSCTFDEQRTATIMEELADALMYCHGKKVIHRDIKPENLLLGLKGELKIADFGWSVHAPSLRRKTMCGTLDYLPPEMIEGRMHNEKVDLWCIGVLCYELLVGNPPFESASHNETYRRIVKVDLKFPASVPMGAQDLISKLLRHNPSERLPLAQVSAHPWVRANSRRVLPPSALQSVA

Deoxycytidine kinase = Deoxycytidine kinase (Homo sapiens, UniProt P27707)
Deoxycytidine kinase, sequence (P27707 whole entry): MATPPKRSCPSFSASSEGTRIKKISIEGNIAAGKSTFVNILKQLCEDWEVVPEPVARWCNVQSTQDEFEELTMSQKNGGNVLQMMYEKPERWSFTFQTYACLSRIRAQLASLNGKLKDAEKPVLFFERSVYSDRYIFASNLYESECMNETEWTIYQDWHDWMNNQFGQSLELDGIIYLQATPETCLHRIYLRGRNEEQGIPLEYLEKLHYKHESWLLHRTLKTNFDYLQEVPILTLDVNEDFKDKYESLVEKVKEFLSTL

[3] = target: Glycogen synthase kinase-3 alpha (Homo sapiens, UniProt P49840)
Glycogen synthase kinase-3 alpha, sequence (P49840 whole entry): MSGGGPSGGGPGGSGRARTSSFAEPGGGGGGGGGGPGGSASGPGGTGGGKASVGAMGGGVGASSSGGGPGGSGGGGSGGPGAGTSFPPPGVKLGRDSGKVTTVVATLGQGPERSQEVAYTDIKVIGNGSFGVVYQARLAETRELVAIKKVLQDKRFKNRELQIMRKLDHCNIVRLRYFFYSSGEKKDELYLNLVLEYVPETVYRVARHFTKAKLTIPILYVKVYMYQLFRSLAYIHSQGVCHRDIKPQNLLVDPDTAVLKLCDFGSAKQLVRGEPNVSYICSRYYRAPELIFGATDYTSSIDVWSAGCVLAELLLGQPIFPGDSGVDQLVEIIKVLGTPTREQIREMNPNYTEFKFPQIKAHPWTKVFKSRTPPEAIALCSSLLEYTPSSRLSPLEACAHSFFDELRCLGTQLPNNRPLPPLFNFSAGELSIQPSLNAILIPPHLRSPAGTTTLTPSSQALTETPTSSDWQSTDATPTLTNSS
Also: in the data inactive means no Kd found up to 30 µM.

Kd [1]	Kd [2]	Kd (Ephrin type-B receptor 2)	Kd (Aurora kinase B)	Kd (Deoxycytidine kinase)	Kd [3]	Compound
> 30 µM (inactive)	> 30 µM (inactive)	> 30 µM (inactive)	> 30 µM (inactive)	> 30 µM (inactive)	> 30 µM (inactive)	CN1N=C(N)c2cn([C@@H]3O[C@H](COP(=O)(O)O)[C@@H](O)[C@H]3O)c3ncnc1c23 [TRICIRIBINE PHOSPHATE]
> 30 µM (inactive)	> 30 µM (inactive)	> 30 µM (inactive)	> 30 µM (inactive)	> 30 µM (inactive)	> 30 µM (inactive)	CNC(=O)c1cc(Oc2ccc(NC(=O)Nc3ccc(Cl)c(C(F)(F)F)c3)c(F)c2)ccn1 [REGORAFENIB]
> 30 µM (inactive)	> 30 µM (inactive)	> 30 µM (inactive)	> 30 µM (inactive)	> 30 µM (inactive)	> 30 µM (inactive)	O=C(Nc1ccc(-c2ccnc(Nc3ccc(N4CCOCC4)cc3)n2)cc1)C1CCCN1 (stereo not given) [XL-019]
> 30 µM (inactive)	> 30 µM (inactive)	> 30 µM (inactive)	> 30 µM (inactive)	> 30 µM (inactive)	> 30 µM (inactive)	CCCS(=O)(=O)Nc1ccc(F)c(C(=O)c2c[nH]c3ncc(-c4ccc(Cl)cc4)cc23)c1F [VEMURAFENIB]
> 30 µM (inactive)	> 30 µM (inactive)	> 30 µM (inactive)	1.78 µM (active)	> 30 µM (inactive)	> 30 µM (inactive)	COc1cc2nccc(Oc3ccc(NC(=O)NC4CC4)c(Cl)c3)c2cc1C(N)=O [LENVATINIB]
> 30 µM (inactive)	> 30 µM (inactive)	> 30 µM (inactive)	> 30 µM (inactive)	> 30 µM (inactive)	> 30 µM (inactive)	Cc1c(F)cc(C(=O)NC2CC2)cc1-c1ccc(C(=O)NCC(C)(C)C)cn1 [LOSMAPIMOD]
	> 30 µM (inactive)			0.012 µM (active)		Nc1nc(N)c2nc(-c3cccc(O)c3)c(-c3cccc(O)c3)nc2n1 [TG100-115]
	> 30 µM (inactive)	> 30 µM (inactive)	> 30 µM (inactive)	> 30 µM (inactive)	> 30 µM (inactive)	CCn1c(=O)c(-c2cc[nH]n2)cc2c(C)nc(N)nc21 [VOXTALISIB]
	> 30 µM (inactive)	> 30 µM (inactive)	> 30 µM (inactive)	> 30 µM (inactive)	> 30 µM (inactive)	C[C@@H](c1ccc2nccn2c1)n1nnc2ncc(-c3cnn(C)c3)nc21 [SAVOLITINIB]
> 30 µM (inactive)	> 30 µM (inactive)	> 30 µM (inactive)		> 30 µM (inactive)		OCCn1cc(-c2cnc3nnn(Cc4ccc5ncccc5c4)c3n2)cn1 [PF-04217903]
> 30 µM (inactive)	> 30 µM (inactive)	0.448 µM (active)		> 30 µM (inactive)	> 30 µM (inactive)	COc1cc2nccc(Oc3ccc(NC(=O)Nc4cc(C)on4)c(Cl)c3)c2cc1OC [TIVOZANIB]
> 30 µM (inactive)	> 30 µM (inactive)	> 30 µM (inactive)		> 30 µM (inactive)	> 30 µM (inactive)	O=C(O)[C@]1(Cc2cccc(Nc3nccs3)n2)CC[C@@H](Oc2cccc(Cl)c2F)CC1 [MK-5108]

The next lines start with the compound.

Compound	Kd [1]	Kd [2]	Kd (Ephrin type-B receptor 2)	Kd (Aurora kinase B)	Kd (Deoxycytidine kinase)	Kd [3]
C[C@@H](Nc1cc(F)cc(F)c1)c1cc(C(=O)N(C)C)cc2c(=O)cc(N3CCOCC3)oc12 [AZD-8186]	> 30 µM (inactive)	> 30 µM (inactive)	> 30 µM (inactive)	> 30 µM (inactive)	> 30 µM (inactive)	> 30 µM (inactive)
Cc1cc([C@@H](C)Nc2ccccc2C(=O)O)c2nc(N3CCOCC3)cc(=O)n2c1 [AZD-6482]	> 30 µM (inactive)	> 30 µM (inactive)	> 30 µM (inactive)	> 30 µM (inactive)	> 30 µM (inactive)	> 30 µM (inactive)
CCS(=O)(=O)N1CC(CC#N)(n2cc(-c3ncnc4[nH]ccc34)cn2)C1 [BARICITINIB]	> 30 µM (inactive)	> 30 µM (inactive)	> 30 µM (inactive)	> 30 µM (inactive)	> 30 µM (inactive)	> 30 µM (inactive)
CNS(=O)(=O)Nc1nccc(Cc2c(C)c3ccc(Oc4ncccn4)cc3oc2=O)c1F [AVUTOMETINIB]	> 30 µM (inactive)	> 30 µM (inactive)	> 30 µM (inactive)	> 30 µM (inactive)	> 30 µM (inactive)	> 30 µM (inactive)
Cc1cc(Nc2cc(N3CCN(C)CC3)nc(/C=C/c3ccccc3)n2)n[nH]1 [ENMD-2076]		> 30 µM (inactive)	> 30 µM (inactive)		> 30 µM (inactive)	
Cc1cc2c(F)c(Oc3ncnn4cc(OC[C@@H](C)OC(=O)[C@H](C)N)c(C)c34)ccc2[nH]1 [BRIVANIB ALANINATE]	> 30 µM (inactive)	> 30 µM (inactive)	> 30 µM (inactive)	> 30 µM (inactive)	> 30 µM (inactive)	> 30 µM (inactive)
Cc1ccc(S(=O)(=O)Nc2nc3ccccc3nc2Nc2ccc3nsnc3c2)cc1	> 30 µM (inactive)	> 30 µM (inactive)	> 30 µM (inactive)	> 30 µM (inactive)	> 30 µM (inactive)	> 30 µM (inactive)
C=CC(=O)N1CCC(Oc2cc3c(Nc4ccc(Cl)c(Cl)c4F)ncnc3cc2OC)CC1 [POZIOTINIB]	> 30 µM (inactive)	> 30 µM (inactive)	2.24 µM (active)		> 30 µM (inactive)	> 30 µM (inactive)
COc1cc(N2CCC(N3CCN(C)CC3)CC2)ccc1Nc1ncnc(Nc2ccccc2S(=O)(=O)C(C)C)n1 [ASP-3026]	> 30 µM (inactive)	> 30 µM (inactive)	> 30 µM (inactive)	0.1 µM (active)	> 30 µM (inactive)	> 30 µM (inactive)
O=C(Nc1cccc(Cl)c1)Nc1ncc(CCNc2ncnc3ccsc23)s1 [SNS-314]	> 30 µM (inactive)	> 30 µM (inactive)	> 30 µM (inactive)		> 30 µM (inactive)	
CCn1c(-c2nonc2N)nc2c(C#CC(C)(C)O)ncc(OC[C@H]3CCCNC3)c21 [GSK-690693]		> 30 µM (inactive)			> 30 µM (inactive)	
CN1CCN(c2ccc3nc(-c4c(N)c5c(F)cccc5[nH]c4=O)[nH]c3c2)CC1 [DOVITINIB]		> 30 µM (inactive)			> 30 µM (inactive)	
CCc1cnn2c(NCc3ccc[n+]([O-])c3)cc(N3CCCC[C@H]3CCO)nc12 [DINACICLIB]	0.497 µM (active)	> 30 µM (inactive)	> 30 µM (inactive)		> 30 µM (inactive)	1.47 µM (active)
Cc1nc(N)sc1-c1ccnc(Nc2ccc(N3CCOCC3)cc2)n1 [CYC-116]	> 30 µM (inactive)	> 30 µM (inactive)			> 30 µM (inactive)	
Cc1cn(-c2cc(NC(=O)c3ccc(C)c(Nc4nccc(-c5cccnc5)n4)c3)cc(C(F)(F)F)c2)cn1 [NILOTINIB]		> 30 µM (inactive)			> 30 µM (inactive)	
